Data taken from paper PMC8037784 (Cancers, 2021).
“And” between values parts separate entries of the source, which are not always exact repeats. Identical values can stand only once.

Assays:
in vivo = assay: in vivo; parameters: species or system Sprague-Dawley rats; conditions: Sprague-Dawley, rat, po, 3 mg/kg
Procedure: The HPLC system consisted of a chromatographic pump (LC−20AT), an online injector (SIL−20C) equipped with a 10 μL sample loop to inject the sample, and an ultraviolet detector (SPD-M20A).
(§1) A freely moving rat model was designed for the current study. The rats were anesthetized and immobilized on a board while undergoing computed tomography to localize the whole liver or a central area measuring 1.5 cm × 1.5 cm for the SBRT technique. For the whole liver field, the cranial margin was set 5 mm from the top of the diaphragm, and the caudal margin was set 5 mm lower than the liver margin. The whole liver was targeted for irradiation. […] Data were collected from six rats per group.
A radiation dose of 2 Gy was considered the daily conventional EBRT dose or the off-target dose around the target that received an ablation RT dose. A dose of 9 Gy was used to simulate SBRT. […] Rats were initially anesthetized with pentobarbital (50 mg/kg, i.p.) and remained anesthetized throughout the experimental period. […]
PK parameters, including the area under the concentration–time curve (AUC), clearance (CL), elimination half-life (t1/2), volume of distribution at steady state (Vss), and mean residence time (MRT), were calculated using the PK calculation software WinNonlin Standard Edition, Version 1.1 (Scientific Consulting, Apex, NC, USA) by a compartmental method.

[1] = Organ distribution of lenvatinib in rats with or without liver RT; type: in vivo, Sprague-Dawley rats; conditions: rat; for concentration at 6 h: Sprague-Dawley, po, 3 mg/kg; for concentration at 6 h / Concentration of lenvatinib in spleen: 6 h after administration
Source text: as §1
A radiation dose of 2 Gy was considered the daily conventional EBRT dose or the off-target dose around the target that received an ablation RT dose. A dose of 9 Gy was used to simulate SBRT. […] Rats were initially anesthetized with pentobarbital (50 mg/kg, i.p.) and remained anesthetized throughout the experimental period. After surgery, the rats were placed in an experimental cage and allowed to recover for 1 day.
The brain, liver, heart, spleen, lung, and kidney were collected and weighed. These collected samples were stored at −20 °C until analysis.
The thawed organ samples were homogenized in 50% aqueous acetonitrile (the ratio of sample weight and volume was 1:5), and the homogenate was centrifuged at 13,000× g for 10 min at 4 °C. The supernatant was collected, placed in brown Eppendorf tubes, and stored at −20 °C until analysis. Briefly, each organ sample (50 μL) was combined with 150 μL of IS solution (diethylstilbestrol) for protein precipitation. Finally, 20 μL of filtrate was subjected to HPLC analysis.

CYP3A4 = conditions: cited from earlier work
[2] = RT2Gy concurrent with lenvatinib
[3] = RT9Gy concurrent with lenvatinib

## COc1cc2nccc(Oc3ccc(NC(=O)NC4CC4)c(Cl)c3)c2cc1C(N)=O [lenvatinib, Lenvatinib]
In vivo
  concentration at 60 min: 940 ng/mL
[1]; brain, Concentration of lenvatinib in brain, 3 mg/kg p.o., RT2Gy concurrent with lenvatinib
  concentration at 6 h: 0 ng/mL
[1]; brain, Concentration of lenvatinib in brain, 3 mg/kg p.o., RT2Gy followed by lenvatinib
  concentration at 6 h: 0 ng/mL
[1]; brain, Concentration of lenvatinib in brain, 3 mg/kg p.o., RT9Gy concurrent with lenvatinib
  concentration at 6 h: 0 ng/mL
[1]; brain, Concentration of lenvatinib in brain, 3 mg/kg p.o., RT9Gy followed by lenvatinib
  concentration at 6 h: 0 ng/mL
[1]; brain, Concentration of lenvatinib in brain, 3 mg/kg p.o., lenvatinib only
  concentration at 6 h: 0 ng/mL
[1]; heart, Concentration of lenvatinib in heart, 3 mg/kg p.o., RT2Gy concurrent with lenvatinib
  concentration at 6 h: 32 ± 40 ng/mL
[1]; heart, Concentration of lenvatinib in heart, 3 mg/kg p.o., RT2Gy followed by lenvatinib
  concentration at 6 h: 74 ± 40 ng/mL
[1]; heart, Concentration of lenvatinib in heart, 3 mg/kg p.o., RT9Gy concurrent with lenvatinib
  concentration at 6 h: 15 ± 40 ng/mL
[1]; heart, Concentration of lenvatinib in heart, 3 mg/kg p.o., RT9Gy followed by lenvatinib
  concentration at 6 h: 78 ± 40 ng/mL
[1]; heart, Concentration of lenvatinib in heart, 3 mg/kg p.o., lenvatinib only
  concentration at 6 h: 50 ± 50 ng/mL
[1]; kidney, Concentration of lenvatinib in kidney, 3 mg/kg p.o., RT2Gy concurrent with lenvatinib
  concentration at 6 h: 113 ± 30 ng/mL
[1]; kidney, Concentration of lenvatinib in kidney, 3 mg/kg p.o., RT2Gy followed by lenvatinib
  concentration at 6 h: 230 ± 50 ng/mL
[1]; kidney, Concentration of lenvatinib in kidney, 3 mg/kg p.o., RT9Gy concurrent with lenvatinib
  concentration at 6 h: 129 ± 50 ng/mL
[1]; kidney, Concentration of lenvatinib in kidney, 3 mg/kg p.o., RT9Gy followed by lenvatinib
  concentration at 6 h: 223 ± 50 ng/mL
[1]; kidney, Concentration of lenvatinib in kidney, 3 mg/kg p.o., lenvatinib only
  concentration at 6 h: 175 ± 50 ng/mL
[1]; liver, Concentration of lenvatinib in liver, 3 mg/kg p.o., RT2Gy concurrent with lenvatinib
  concentration at 6 h: 72 ± 60 ng/mL
[1]; liver, Concentration of lenvatinib in liver, 3 mg/kg p.o., RT2Gy followed by lenvatinib
  concentration at 6 h: 158 ± 90 ng/mL
[1]; liver, Concentration of lenvatinib in liver, 3 mg/kg p.o., RT9Gy concurrent with lenvatinib
  concentration at 6 h: 93 ± 50 ng/mL
[1]; liver, Concentration of lenvatinib in liver, 3 mg/kg p.o., RT9Gy followed by lenvatinib
  concentration at 6 h: 161 ± 70 ng/mL
[1]; liver, Concentration of lenvatinib in liver, 3 mg/kg p.o., lenvatinib only
  concentration at 6 h: 104 ± 50 ng/mL
[1]; lung, Concentration of lenvatinib in lung, 3 mg/kg p.o., RT2Gy concurrent with lenvatinib
  concentration at 6 h: 33 ± 40 ng/mL
[1]; lung, Concentration of lenvatinib in lung, 3 mg/kg p.o., RT2Gy followed by lenvatinib
  concentration at 6 h: 92 ± 30 ng/mL
[1]; lung, Concentration of lenvatinib in lung, 3 mg/kg p.o., RT9Gy concurrent with lenvatinib
  concentration at 6 h: 42 ± 50 ng/mL
[1]; lung, Concentration of lenvatinib in lung, 3 mg/kg p.o., RT9Gy followed by lenvatinib
  concentration at 6 h: 75 ± 30 ng/mL
[1]; lung, Concentration of lenvatinib in lung, 3 mg/kg p.o., lenvatinib only
  concentration at 6 h: 108 ± 40 ng/mL
[1]; spleen, Concentration of lenvatinib in spleen, 3 mg/kg p.o., RT2Gy followed by lenvatinib
  concentration at 6 h: 73 ± 40 ng/mL
[1]; spleen, Concentration of lenvatinib in spleen, 3 mg/kg p.o., RT9Gy followed by lenvatinib
  concentration at 6 h: 60 ± 60 ng/mL
[1]; spleen, Concentration of lenvatinib in spleen, 3 mg/kg p.o., lenvatinib only
  concentration at 6 h: 30 ± 50 ng/mL
[1]; 3 mg/kg p.o., RT2Gy concurrent with lenvatinib
  Concentration of lenvatinib in spleen: 0 ng/mL
[1]; 3 mg/kg p.o., RT9Gy concurrent with lenvatinib
  Concentration of lenvatinib in spleen: 0 ng/mL
[1]; 3 mg/kg p.o., with or without RT
  Detection of lenvatinib in the brain: not detected
[1]; [2]
  Heart concentration decreased compared with the sham group: 36.0%
  Kidney concentration decreased compared with the sham group: 35.4%
  Liver concentration decreased compared with the sham group: 30.8%
  Lung concentration decreased compared with the sham group: 69.4%
  Spleen concentration decreased compared with the sham group: 100.0%
[1]; RT2Gy followed by lenvatinib
  Heart concentration increased compared with the sham group: 48.0%
  Kidney concentration increased compared with the sham group: 31.4%
  Liver concentration increased compared with the sham group: 51.9%
  Lung concentration decreased compared with the sham group: 15% and 14.8%
  Spleen concentration increased compared with the sham group: 143.3%
[1]; [3]
  Heart concentration decreased compared with the sham group: 70.0%
  Kidney concentration decreased compared with the sham group: 26.2%
  Liver concentration decreased compared with the sham group: 10.6%
  Lung concentration decreased compared with the sham group: 61.1%
  Spleen concentration decreased compared with the sham group: 100%
[1]; RT9Gy followed by lenvatinib
  Heart concentration increased compared with the sham group: 56.0%
  Kidney concentration increased compared with the sham group: 27.4%
  Liver concentration increased compared with the sham group: 54.8%
  Lung concentration decreased compared with the sham group: 31% and 30.6%
  Spleen concentration increased compared with the sham group: 100%
[1]; sequential RT regimen
  Increase of concentration in the heart: 50%
  Increase of concentration in the kidneys: 30%
  Increase of concentration in the liver: 50%
[1]; sequential regimen
  Increase of concentration in the spleen: more than 100%
CYP3A4
  Oxidative metabolism: mediated primarily by CYP3A4
